Columns and labels:
Assay type in all cases: cell-based, human
hiPSC = test: Differentiation induction efficiency of SIX2-positive cells, hNPC from hiPSC (differentiation induction method B)
Protocol: <Method for Differentially Inducing hNPC from hiPSC (Differentiation Induction Method B)> • 1. Undifferentiated hiPSC were converted to single cells using a TrypLE Select Enzyme (Gibco), and then using a medium prepared using DMEM/F12 Glutamax (Invitrogen) supplemented with B27 as the basal medium and adding 1 μM of CHIR99021, 10 nM of retinoic acid, 1 ng/ml of BMP4, 100 ng/ml of FGF2, 10 μM of Y-27632 and iMatrix-511 (Nippi) to this basal medium, plating was conducted at a density within a range from 1.0×10^4 cells/well to 5.0×10^4 cells/well, and the cells were then incubated for 24 hours at 37° C. (production of a late posterior epiblast: step 1). • 2. On day 1, medium replacement was conducted using a medium prepared by adding 5 μM of CHIR99021, 1 ng/ml of BMP7 and 100 ng/ml of FGF2 to the same basal medium as above (production of a mesodermal-lineage primitive streak: step 2). • 3. On day 2, medium replacement was conducted using a medium prepared by adding 5 μM of CHIR99021, 1 ng/ml of BMP7, 100 ng/ml of FGF2 and 10 μM of A83-01 to the same basal medium as above (production of a mesodermal-lineage late primitive streak: step 3). • 4. On day 3, medium replacement was conducted using a medium prepared by adding 5 μM of CHIR99021, 100 ng/ml of FGF2, 1 ng/ml of BMP7, 10 ng/ml of activin A and 30 μM of Y-27632 to the same basal medium (production of a metanephric-lineage late primitive streak: step 4). • 5. On day 6, medium replacement was conducted using a medium prepared by adding 100 nM of retinoic acid, 200 ng/ml of FGF9 and 25 ng/ml of Noggin to the same basal medium (production of a late posterior intermediate mesoderm: step 5). • 6. On day 8, medium replacement was conducted using a medium prepared by adding 1 μM of CHIR99021 and 200 ng/ml FGF9 to the same basal medium (production of hNPC: step 6).

hNPC (Bulk) [1] = test: Expression of NPC markers SIX2 and OSR1 in subcultured hNPC (Bulk); conditions: 3 nM in CFY medium, subculture of hNPC (Bulk)
Protocol: A cell mass of the human iPS cell-derived NPC (hNPC) cultured in the test medium was transferred to a 1.5 ml tube, the supernatant was removed completely, 30 μL of Accumax (Innovative Cell Technologies, Inc.) was added, and the resultant was left to stand for 10 minutes in an incubator at 37° C. and 5% CO2. After 10 minutes, the sample was suspended in 470 μL of 10% FBS, and the cell count was measured with a TC20 (Bio-Rad Laboratories, Inc.). The human iPS cell-derived NPC were suspended in the test medium and then used to inoculate a low-attachment 96-well plate (Nunc) in an amount of 2.0×10^4 cells per well. This low-attachment 96-well plate that had been inoculated with the cells was centrifuged at 300 g for 3 minutes, and the cells were then subjected to static culture in an incubator at 37° C. and 5% CO2. Then, 48 hours after starting this static culture, an additional 100 μL of the test medium was administered to each well. Subsequently, 48 hours after this additional administration, the above operations were repeated, with the cell count being measured and a subculture conducted.
(§1) Expression of OSR1 and SIX2 was confirmed by conducting a culture test using these human iPS cells, and detecting the respective fluorescence from the GFP and tdTomato using a fluorescence microscope. […]

hNPC (c-MET(+)) [2] = test: Expression of NPC markers OSR1 and SIX2 in subcultured hNPC (c-MET(+)); conditions: 3 nM in CFY medium, subculture of hNPC (c-MET(+))
Protocol: (§2) Ten μL of human-HGFR/c-MET antibody to which the fluorescent substance APC had been bound (FAB 3582A, R&D Systems Inc.) was added to 100 μL of the 2% FBS suspension of the induced hNPC cells prepared above, and the resultant was left to stand for 30 minutes on ice. After 30 minutes, the sample was centrifuged at 200 g for 5 minutes, the supernatant was removed, the residue was washed with 1 mL of PBS, and the sample was once again centrifuged at 200 g for 5 minutes and the supernatant removed. This operation was conducted twice. […]
(§3) A cell mass of the human iPS cell-derived NPC (hNPC) cultured in the test medium was transferred to a 1.5 ml tube, the supernatant was removed completely, 30 μL of Accumax (Innovative Cell Technologies, Inc.) was added, and the resultant was left to stand for 10 minutes in an incubator at 37° C. and 5% CO2. After 10 minutes, the sample was suspended in 470 μL of 10% FBS, and the cell count was measured with a TC20 (Bio-Rad Laboratories, Inc.). […] Subsequently, 48 hours after this additional administration, the above operations were repeated, with the cell count being measured and a subculture conducted.
as §1

hNPC (Bulk) [3] = test: Cell growth (cell count, cumulative cell count) of hNPC (Bulk); conditions: 3 nM in CFY medium (CFY+TG(3)) vs CFY+DMSO
Protocol: The hNPC were suspended in 50 μL of a test medium in sufficient amount to achieve 2.0×10^4 cells per well, and the suspension was then used to inoculate a low-attachment 96-well plate (Nunc), and following centrifuging at 300 g for 3 minutes, the cells were subjected to a static culture in an incubator at 37° C. and 5% CO2. Six hours after starting the static culture, a cell mass had formed.
(§4) Subsequently, 48 hours after the start of the static culture, an additional 100 μL of the same medium as that used at the time of cell inoculation was administered to each well. […] After 10 minutes, the sample was suspended in 470 μL of 10% FBS, and the cell count was measured with a TC20 (Bio-Rad Laboratories, Inc.).
as §3, with “conducted. […]” for “conducted.”

hNPC (Bulk) [4] = test: Production of renal organoids from subcultured hNPC (Bulk); conditions: 3 nM in CFY medium, cells of passage 2
Protocol: A cell mass of hNPC that had been subcultured in the test medium were placed in a Transwell (Corning), and the surrounding medium was removed. Next, the Transwell with the cell mass thereon was set in a culture dish that had been filled with 5% KSR (Kock-out Serum Replacement) (Thermo Fisher Scientific) to which 200 ng/mL of FGF2 and 5 μM of CHIR99021 had been added in advance. After 48 hours, the medium was replaced with 5% KSR containing no added growth factors or low-molecular weight compounds. Thereafter, the medium was replaced every 48 hours with fresh 5% KSR containing no added growth factors or low-molecular weight compounds, and on the 10th day after starting the differentiation culture, the cells were fixed for 3 hours at 4° C. using 4% PFA without removal from the Transwell. Following fixing, the medium was replaced with PBS, and after standing overnight at 4° C., immunostaining was conducted.
Bright field images of renal organoids were captured using either a KEYENCE BZ-X700 or a confocal microscope (Zeiss LSM710). Image analysis was performed using Image J version 1.51j8 (National Institutes of Health) (C. A. Schneider, et al., Nat Methods. 9 (2012) 671 to 675.).
Attempts were made to produce renal organoids from hNPC (Bulk) that had been subcultured using either the hNPSR medium or the CFY medium.

hNPC (c-MET(+)) [5] = test: Cell growth (cumulative cell count) in subculture of hNPC (c-MET(+)); conditions: 3 nM in CFY medium vs CFY+DMSO
Protocol: as §2, §4
A cell mass of the human iPS cell-derived NPC (hNPC) cultured in the test medium was transferred to a 1.5 ml tube, the supernatant was removed completely, 30 μL of Accumax (Innovative Cell Technologies, Inc.) was added, and the resultant was left to stand for 10 minutes in an incubator at 37° C. and 5% CO2. After 10 minutes, the sample was suspended in 470 μL of 10% FBS, and the cell count was measured with a TC20 (Bio-Rad Laboratories, Inc.). […]

hNPC (c-MET(+)) [6] = test: Production of renal organoids from subcultured hNPC (c-MET(+)); conditions: 3 nM in CFY medium, cells of passage 1
Protocol: Ten μL of human-HGFR/c-MET antibody to which the fluorescent substance APC had been bound (FAB 3582A, R&D Systems Inc.) was added to 100 μL of the 2% FBS suspension of the induced hNPC cells prepared above, and the resultant was left to stand for 30 minutes on ice. After 30 minutes, the sample was centrifuged at 200 g for 5 minutes, the supernatant was removed, the residue was washed with 1 mL of PBS, and the sample was once again centrifuged at 200 g for 5 minutes and the supernatant removed. This operation was conducted twice. The cells obtained following removal of the supernatant were suspended in DAPI that had been diluted 1,000-fold with 2% FBS, and following filtration through a 40 μm filter, flow cytometry was used to extract the c-MET-positive cells.
A cell mass of hNPC that had been subcultured in the test medium were placed in a Transwell (Corning), and the surrounding medium was removed. Next, the Transwell with the cell mass thereon was set in a culture dish that had been filled with 5% KSR (Kock-out Serum Replacement) (Thermo Fisher Scientific) to which 200 ng/mL of FGF2 and 5 μM of CHIR99021 had been added in advance. After 48 hours, the medium was replaced with 5% KSR containing no added growth factors or low-molecular weight compounds. […]

heparin
hNPC induction efficiency (hiPSC; 0.18 U/ml (1 μg/ml) heparin added with FGF2 in step 4): no effect
hNPC induction efficiency (hiPSC; 0.18 U/ml (1 μg/ml) heparin added with FGF9 in step 5): no effect

FGF2: fibroblast growth factor 2 (basic FGF)
induction efficiency into hNPC (hiPSC; FGF2 concentration in step 4 reduced to 10 ng/mL or less): decreased
hNPC induction efficiency (hiPSC; concentration of FGF2 in step 3 varied (100, 30, 10 ng/ml)): no effect

Cc1cnc(Nc2ccc(OCCN3CCCC3)cc2)nc1Nc1cccc(S(=O)(=O)NC(C)(C)C)c1 [TG101348]
expression of both OSR1 and SIX2 (hNPC (Bulk) [1]): maintained up until passage 3
expression of both OSR1 and SIX2 (hNPC (c-MET(+)) [2]): maintained up until passage 3
cell growth (cell count) (hNPC (Bulk) [3]): promoted more
renal organoid formation (hNPC (Bulk) [4]): formed
cell growth (cumulative cell count) (hNPC (c-MET(+)) [5]): better promoted in all passages
renal organoid formation (hNPC (c-MET(+)) [6]): formed
